Tests used:
Conditions in all cases: 72 h
[1] = system: Caco-2; experiment: cell viability relative to DMSO; higher = less toxic
[2] = system: Calu-3; experiment: as above
[3] = system: U2OS; experiment: as above
[4] = system: HepG2; experiment: as above
[5] = system: Caco-2; experiment: drug sensitivity score (DSS) for viability; higher = more toxic; extreme values may be limits of the assay
[6] = system: Calu-3; experiment: as above
[7] = system: U2OS; experiment: as above
[8] = system: HepG2; experiment: as above
[9] = system: Caco-2; experiment: relative viability EC50 (midpoint between 100% and the lowest measured viability); higher = less toxic
[10] = system: Calu-3; experiment: as above
[11] = system: U2OS; experiment: as above
[12] = system: HepG2; experiment: as above
[13] = system: Vero E6; experiment: cell viability relative to DMSO; higher = less toxic
[14] = system: Vero E6; experiment: drug sensitivity score (DSS) for viability; higher = more toxic; extreme values may be limits of the assay
[15] = system: Vero E6; experiment: relative viability EC50 (midpoint between 100% and the lowest measured viability); higher = less toxic

| Compound | cell viability ([1]; 1 nM) [%] | cell viability ([1]; 10 nM) [%] | cell viability ([1]; 100 nM) [%] | cell viability ([1]; 1000 nM) [%] | cell viability ([1]; 10000 nM) [%] | cell viability ([2]; 1 nM) [%] | cell viability ([2]; 10 nM) [%] | cell viability ([2]; 100 nM) [%] | cell viability ([2]; 1000 nM) [%] | cell viability ([2]; 10000 nM) [%] | cell viability ([3]; 1 nM) [%] | cell viability ([3]; 10 nM) [%] | cell viability ([3]; 100 nM) [%] | cell viability ([3]; 1000 nM) [%] | cell viability ([3]; 10000 nM) [%] | cell viability ([4]; 1 nM) [%] | cell viability ([4]; 10 nM) [%] | cell viability ([4]; 100 nM) [%] | cell viability ([4]; 1000 nM) [%] | cell viability ([4]; 10000 nM) [%] | drug sensitivity score [5] | drug sensitivity score [6] | drug sensitivity score [7] | drug sensitivity score [8] | relative viability EC50 [9] [µM] | relative viability EC50 [10] [µM] | relative viability EC50 [11] [µM] | relative viability EC50 [12] [µM] | cell viability ([13]; 1 nM) [%] | cell viability ([13]; 10 nM) [%] | cell viability ([13]; 100 nM) [%] | cell viability ([13]; 1000 nM) [%] | cell viability ([13]; 10000 nM) [%] | drug sensitivity score [14] | relative viability EC50 [15] [µM] |
| --- | --- | --- | --- | --- | --- | --- | --- | --- | --- | --- | --- | --- | --- | --- | --- | --- | --- | --- | --- | --- | --- | --- | --- | --- | --- | --- | --- | --- | --- | --- | --- | --- | --- | --- | --- |
| O=C(CNC(=O)c1ccc(Cl)cc1)NO [benurestat] | 98.5 | 98.5 | 97.4 | 98.5 | 98.1 | 107 | 104 | 103 | 103 | 99.3 | 96.8 | 104 | 97.5 | 104 | 95.1 | 110 | 108 | 104 | 101 | 95.8 | 0 | 0 | 0 | 0 | > 10 | > 10 | > 10 | > 10 | – | – | – | – | – | – | – |
| N[C@@H]1CCCCN(c2c(F)cc3c(=O)c(C(=O)O)cn(C4CC4)c3c2Cl)C1 [besifloxacin] | 97.1 | 98.4 | 100 | 104 | 93.5 | 100 | 97.3 | 100 | 103 | 107 | 98.2 | 99.5 | 95.6 | 102 | 98.9 | 102 | 92.2 | 108 | 113 | 97.8 | 0 | 0 | 0 | 0 | > 10 | > 10 | > 10 | > 10 | – | – | – | – | – | – | – |
| CCCCCCNC(=O)n1cc(F)c(=O)[nH]c1=O [carmofur] | 107 | 98.5 | 95 | 97.8 | 61.7 | 95.4 | 93.1 | 90 | 94.8 | 83.7 | 98.7 | 103 | 98.5 | 99.5 | 54 | 100 | 98.3 | 101 | 76.4 | 42.5 | 2.2 | 0.4 | 2.4 | 6.3 | – | > 10 | – | 1.16 | 106 | 102 | 102 | 97.4 | 58.8 | 2.4 | – |
| COCCOC(=O)C1=C(C)NC(C)=C(C(=O)OC/C=C/c2ccccc2)C1c1cccc([N+](=O)[O-])c1 (centres undefined) [cilnidipine] | 91.1 | 94.3 | 94 | 92.9 | 67.7 | 99.2 | 105 | 93.3 | 105 | 95.2 | 99.1 | 103 | 98.8 | 104 | 85 | 118 | 104 | 114 | 104 | 91.8 | 2.5 | 0 | 0.1 | 0 | – | > 10 | > 10 | > 10 | – | – | – | – | – | – | – |
| Clc1ccc(COC(Cn2ccnc2)c2ccc(Cl)cc2Cl)cc1 (centres undefined) [econazole] | 94.5 | 90.1 | 97 | 90.9 | 68.6 | 104 | 103 | 103 | 102 | 98.5 | 102 | 97.8 | 95.6 | 95.3 | 90.7 | 100 | 98.1 | 102 | 97.3 | 72.6 | 2.5 | 0 | 0 | 1.5 | – | > 10 | > 10 | – | 104 | 108 | 106 | 102 | 94.7 | 0 | > 10 |
| C[n+]1ccc(C(=O)NCc2ccccc2)cc1 [enisamium-iodide] | 98.8 | 103 | 87.7 | 94.5 | 99.1 | 96.5 | 100 | 91 | 108 | 102 | 104 | 103 | 98.9 | 103 | 103 | 88.7 | 96.3 | 99.7 | 79.7 | 81.7 | 0 | 0 | 0 | 2.8 | > 10 | > 10 | > 10 | > 10 | – | – | – | – | – | – | – |
| CC(C)C[C@H](NC(=O)CNC(=O)[C@H](Cc1ccc(O)cc1)NC(=O)[C@H](CO)NC(=O)[C@H](Cc1c[nH]c2ccccc12)NC(=O)[C@H](Cc1cnc[nH]1)NC(=O)[C@@H]1CCC(=O)N1)C(=O)N[C@@H](CCCNC(=N)N)C(=O)N1CCC[C@H]1C(=O)NCC(N)=O [gonadorelin] | 106 | 96 | 100 | 99.7 | 100 | 94.7 | 98.8 | 92.2 | 86.9 | 97.5 | 97.4 | 100 | 98.4 | 98 | 97.7 | 108 | 86.8 | 102 | 101 | 96.2 | 0 | 0 | 0 | 0 | > 10 | > 10 | > 10 | > 10 | – | – | – | – | – | – | – |
| c1nc(CC2CCNCC2)c[nH]1 [immepip] | 113 | 101 | 98.6 | 98.8 | 102 | 96.7 | 91.6 | 111 | 111 | 99.9 | 98.1 | 99.8 | 97.2 | 93.3 | 97.9 | 108 | 107 | 103 | 111 | 95.7 | 0 | 0 | 0 | 0 | > 10 | > 10 | > 10 | > 10 | – | – | – | – | – | – | – |
| COc1ccc2c(c1)c(CC(=O)O)c(C)n2C(=O)c1ccc(Cl)cc1 [indomethacin] | 95.6 | 98.6 | 101 | 98.4 | 94.6 | 99.2 | 96.4 | 90.7 | 84.3 | 91.8 | 98.9 | 102 | 97.8 | 101 | 99.7 | 105 | 100 | 108 | 94.7 | 95 | 0 | 1 | 0 | 0 | > 10 | > 10 | > 10 | > 10 | – | – | – | – | – | – | – |
| C[C@]12CC/C(=N\OCCN)C[C@@H]1C(=O)C[C@@H]1[C@@H]2CC[C@]2(C)C(=O)CC[C@@H]12 [istaroxime] | 97.6 | 93.1 | 95.7 | 88.4 | 71.7 | 94.5 | 96.5 | 93 | 91.1 | 95.5 | 98.8 | 96.9 | 101 | 95.7 | 51.4 | 110 | 102 | 88.6 | 99.7 | 87.2 | 2.1 | 0 | 3.2 | 0 | – | > 10 | – | > 10 | 106 | 105 | 98.3 | 97.9 | 61.1 | 2.2 | – |
| CC(=O)SCCC(=O)N1[C@H](C)CCC[C@@H]1C(=O)O [methiopril] | 96.1 | 103 | 93.8 | 100 | 89.6 | 99.2 | 99.6 | 96.8 | 97.5 | 88.1 | – | – | – | – | – | 109 | 99.3 | 98.6 | 96 | 97.2 | 0 | 0.1 | – | 0 | > 10 | > 10 | – | > 10 | – | – | – | – | – | – | – |
| COc1ccc(OC)c(C(O)C(C)N)c1 (centres undefined) [methoxamine] | – | – | – | – | – | 93.7 | 99.6 | 103 | 100 | 109 | – | – | – | – | – | – | – | – | – | – | – | 0 | – | – | – | > 10 | – | – | 109 | 107 | 99.4 | 102 | 102 | 0 | > 10 |
| O=C(O)c1cc(/N=N/c2ccc(O)c(C(=O)O)c2)ccc1O [olsalazine] | 96.8 | 107 | 104 | 106 | 91.9 | 107 | 94.3 | 94.4 | 100 | 105 | 99 | 102 | 103 | 107 | 103 | – | – | – | – | – | 0 | 0 | 0 | – | > 10 | > 10 | > 10 | – | – | – | – | – | – | – | – |
| [I-].[K+] [potassium-iodide] | – | – | – | – | – | 99.9 | 111 | 96.2 | 102 | 95.1 | – | – | – | – | – | – | – | – | – | – | – | 0 | – | – | – | > 10 | – | – | 102 | 99.7 | 103 | 101 | 106 | 0 | > 10 |
| COc1cc2c(cc1OC)[C@@H]1Cc3ccc(OC)c(OC)c3CN1CC2 [rotundine] | 102 | 98.1 | 94.8 | 109 | 91 | 103 | 108 | 99.8 | 101 | 89.2 | – | – | – | – | – | – | – | – | – | – | 0 | 0 | – | – | > 10 | > 10 | – | – | – | – | – | – | – | – | – |
| CC1(C)CCC(C)(C)c2cc(NC(=O)c3ccc(C(=O)O)cc3)ccc21 [tamibarotene] | 98 | 100 | 95.4 | 98.8 | 83.8 | 95.4 | 83.6 | 73.5 | 67.8 | 70.1 | 99 | 96.1 | 90.6 | 91.4 | 87.7 | 110 | 98.7 | 114 | 109 | 108 | 0.4 | 10.1 | 0.3 | 0 | > 10 | – | > 10 | > 10 | 101 | 101 | 100 | 91.6 | 96.5 | 0 | > 10 |
| COc1cc([C@@H]2c3cc4c(cc3[C@@H](O[C@@H]3O[C@@H]5CO[C@@H](c6cccs6)O[C@H]5[C@H](O)[C@H]3O)[C@H]3COC(=O)[C@H]23)OCO4)cc(OC)c1O [teniposide] | 108 | 95.7 | 100 | 71 | 29 | 91.1 | 92.6 | 75.8 | 47.2 | 40.6 | 99.3 | 94.4 | 92.7 | 66.5 | 4.2 | 89.6 | 86.1 | 47.3 | 27.8 | 9.9 | 7.8 | 12.6 | 9.4 | 21.5 | 1.16 | 0.129 | 1.37 | 0.0761 | 106 | 92.8 | 100 | 75 | 64 | 4.6 | – |
| C/C=C/C[C@@H](C)C(=O)[C@H]1C(=O)N[C@@H](C(C)C)C(=O)N(C)CC(=O)N(C)[C@@H](CC(C)C)C(=O)N[C@@H](C(C)C)C(=O)N(C)[C@@H](CC(C)C)C(=O)N[C@@H](C)C(=O)N[C@H](C)C(=O)N(C)[C@@H](CC(C)C)C(=O)N(C)[C@@H](CC(C)C)C(=O)N(C)[C@@H](C(C)C)C(=O)N1C [valspodar] | 119 | 111 | 106 | 73.5 | 50.7 | 109 | 99.8 | 95.4 | 105 | 82.2 | 99.9 | 96.4 | 102 | 99.7 | 87.4 | – | – | – | – | – | 5.9 | 0.3 | 0.1 | – | – | > 10 | > 10 | – | – | – | – | – | – | – | – |

Source: the supplement of paper PMC13380429
